Test results published in publication PMC7069920, “Schizandrin A exhibits potent anticancer activity in colorectal cancer cells by inhibiting heat shock factor 1” (Bioscience Reports, 2020).

Columns and labels:
[1] = tested on: HSF1; conditions: read-out: IC50, heat shock-induced HSF1 reporter activity; cited from earlier work
[2] = target: T1, human recombinant HSF1 full-length protein (Homo sapiens, UniProt Q00613); assay: SPR direct binding to HSF1
T1 sequence (Q00613 1-529): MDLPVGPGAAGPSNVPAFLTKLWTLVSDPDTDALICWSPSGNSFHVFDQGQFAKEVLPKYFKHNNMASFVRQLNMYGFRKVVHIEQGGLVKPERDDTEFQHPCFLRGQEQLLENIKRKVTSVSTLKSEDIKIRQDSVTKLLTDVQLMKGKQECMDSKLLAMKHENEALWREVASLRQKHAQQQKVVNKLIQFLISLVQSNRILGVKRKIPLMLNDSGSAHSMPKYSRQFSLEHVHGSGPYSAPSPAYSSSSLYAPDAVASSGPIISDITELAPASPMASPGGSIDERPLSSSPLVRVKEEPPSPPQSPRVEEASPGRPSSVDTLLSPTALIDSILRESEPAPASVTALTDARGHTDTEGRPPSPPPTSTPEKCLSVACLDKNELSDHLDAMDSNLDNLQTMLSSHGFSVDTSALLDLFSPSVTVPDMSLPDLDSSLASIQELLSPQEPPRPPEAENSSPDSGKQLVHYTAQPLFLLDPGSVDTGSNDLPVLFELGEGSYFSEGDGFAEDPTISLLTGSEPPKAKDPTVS
Experimental: SPR experiments were performed on a ProteOn XPR36 Protein Interaction Array system (Bio-Rad Laboratories, Hercules, CA, U.S.A.). Briefly, HSF1 solution in PBST (5 mM, pH 7.4) at a concentration of 1 mg/ml was diluted to 30 μg/ml with sodium acetate buffer (pH 4.5). The chip was activated with EDC/NHS (10 μl/min for 600 s). Then, HSF1 was loaded (5 μl/min for 400 s) and immobilized covalently. Approximately 7000 RU of HSF1 was immobilized on the chip. Any excess of unbound HSF1 was removed by flowing PBS solution (5 mM, pH 7.4, with 5%, w/v, DMSO). […] Five concentrations were injected simultaneously at a flow rate of 30 μM/min for 120 s of association phase, followed with 120 s of dissociation phase at 25°C. The final graph was obtained by subtracting blank sensorgrams from the duplex or quadruplex sensorgrams. Data were analyzed using the ProteOn manager software.

[3] = tested on: Cleaved-PARP, Cleaved-caspase-3, Bcl-2; assay: Western blot of apoptosis-related proteins; assay type: cell-based, human; conditions: RKO, 50-150 μM, 24 h
Experimental: Flow cytometer analysis and Western blotting were used to detect cell apoptosis. For flow cytometer analysis of apoptosis, cells were treated […] for 24 h, washed twice with PBS, and re-suspended in 100 μl of 1 × binding buffer. Five microliters of FITC Annexin V and propidium iodide (PI) (556547, BD Biosciences, U.S.A.) were added to the cell suspension and then incubated at room temperature for 15 min. After dilution with 400 μl binding buffer, the samples were analyzed using an ACS Calibur flow cytometer (BD). For apoptosis using Western blotting, cleaved caspase 3, cleavage of PARP, Bcl-2, and BCl-xL were analyzed.
(§1) After 24 h of treatment as indicated, the cells were washed once with PBS. The total proteins were extracted with RIPA buffer supplemented with protease inhibitors (Roche, U.S.A.) and quantified with BSA standard methodology. Equal amounts of proteins were separated by SDS/PAGE and transferred to a PVDF membrane. After blocking with 5% non-fat dry milk in TBST for 1.5 h, the membrane was incubated with a specific primary antibody diluted 1:1000 overnight at 4°C, and the secondary antibody was then conjugated with HRP (1:5000, Santa Cruz, CA) at room temperature for 2 h. The immunoreactive bands were visualized with enhanced chemiluminescence liquid (Millipore, Billerica, MA, U.S.A.) in Amersham Imager 600 system (GE Healthcare Life Sciences, Shanghai, China).

[4] = tested on: HSF1; assay: HSE luciferase reporter assay (heat shock-induced HSF1 reporter activity); assay type: cell-based; conditions: Homo sapiens, RKO cells, 30 min pretreatment, 43°C 1 h, 5 h recovery
Experimental: The double-strand DNA containing four copies of the palindromic HSE (5′-[…]-3′) was synthesized and inserted into the multiple cloning site (MCS) of pGL3-basic vector (Promega, U.S.A.), which was named as p(HSE)4-basic vector. Then, the Dual-Glo® Luciferase Assay System (Promega, U.S.A.) was used to measure the activity of the reporter. Briefly, RKO cells (3 × 10^5 cells/well) were seeded in six-well plates. After being cultured overnight, cells were co-transfected with 2 μg of p(HSE)4-basic vector and 0.2 μg of pRL-TK using X-treme GENE HP DNA Transfection Reagent (Roche, U.S.A.) according to the manufacturer’s protocol. The Renilla luciferase gene was transfected as an internal control vector. Twenty-four hours after transfection, cells were trypsinized and seeded in 12-well plates at a density of 8 × 10^4 cells per well. The next day, cells were incubated with Sch A at different concentrations for 30 min, exposed to heat shock at 43°C for 60 min, and then incubated further at 37°C for 5 h. Firefly and Renilla luciferase activities were measured using a dual-light reporter gene assay kit (Promega) with a Synergy 2 BioTek plate reader (BioTek, U.S.A.).

[5] = statement in discussion, no experiment and reference not given; cited from earlier work
[6] = tested on: p-Rb (S807/811), Cyclin D1, Cdk4, Cdk6; assay: Western blot of cell cycle-related proteins; assay type: cell-based, human; conditions: RKO, 50-150 μM, 24 h
Experimental: as §1

[7] = tested on: CCD 841 CoN cells; assay: MTS cell viability assay, normal colon epithelial cells; assay type: cell-based, human; conditions: 72 h
[8] = tested on: HSP70, HSP27 and HSP90 mRNA; assay: qRT-PCR of HSF1 target genes after heat shock; assay type: cell-based, human; conditions: RKO, 50-150 μM, heat shock 43°C 1 h, recovery 37°C 0.5 h
Experimental: Total RNA was extracted with TRIzol reagent (Invitrogen) following the manufacturer’s protocol. RNA concentrations were quantified by NanoDrop 2000 (Nanodrop, U.S.A.). Two micrograms RNA was reverse transcribed with High-Capacity cDNA Reverse Transcription Kit (Applied Biosystems, U.S.A.). Quantitative real-time PCR was performed to determine the mRNA expression level using SYBR Green Master Mix Kit and Light Cycler 480 II system (Roche, Shanghai, China).
Relative quantities of HSP70, HSP90 and HSP27 mRNA were normalized against ACTB mRNA.

[9] = tested on: SW480 cells; assay: MTS cell viability assay, SW480; assay type: cell-based; conditions: Homo sapiens, 72 h, read-out: IC50 (50% inhibition), antiproliferative effect
Experimental: (§2) The Cell Titer 96 Aqueous Non-Radioactive Cell Proliferation Assay Kit (Promega, U.S.A.) was utilized to measure cell viability. RKO, DLD-1 cells (5 × 10^3 cells/well) and SW620, SW480 (6 × 10^3 cells/well) were seeded in 96-well plates overnight. This was followed by the removal of the culture medium and the exposure of all cells to different concentrations of chemical treatment for 72 h. The absorbance value of each well was determined by a microplate reader at 490 nm. Each experiment was repeated for three times.

[10] = tested on: RKO and SW620 cells; assay: Clonogenic (colony-forming) assay; assay type: cell-based, human; conditions: 75 and 150 μM for 24 h, colonies stained on 14th day, vs negative control
Experimental: RKO cells were seeded at a density of 800 cells per well in six-well cell culture plate overnight. Then Sch A was mixed into the culture medium and added at different concentrations. After 24 h, the culture medium was replaced with fresh culture medium, and was allowed to grow for an additional 14 ays. Following this, the medium was removed from the colonies, which were then washed twice with PBS, fixed with methanol for 15 min, stained with Crystal Violet for 15 min, and finally washed with running water for 5 min. Colonies containing more than 50 cells were counted, and then photographed for visualization.
Furthermore, colony-forming assays were performed to assess the long-term inhibitory effects of Sch A treatment. After 24 h of treatment with Sch A (75 and 150 μM), the cell culture was replaced with fresh medium every 3 days. On the 14th day, cell colonies were stained with 0.1% Crystal Violet and photographed.

[11] = tested on: RKO cells; assay: Cell cycle analysis by flow cytometry (PI); assay type: cell-based, human
Experimental: Cells (3 × 10^5 cells/well) were seeded in six-well plates and allowed to adhere overnight. The next day, the cells were treated with different compounds as indicated for 24 h. The cells were then trypsinized, washed, and fixed in 75% ice-cold ethanol at 4°C overnight. After centrifugation, the pellets were washed with cold PBS, suspended in 500 μl PBS with […] PI and incubated in the dark at 4°C for 30 min. Then cell suspension was tested using an FACS Calibur instrument (Becton Dickinson FACSCalibor, BD Biosciences, Franklin Lakes, NJ, U.S.A.).

[12] = tested on: RKO cells; assay: MTS cell viability assay, RKO; assay type: cell-based; conditions: Homo sapiens, 72 h, read-out: IC50, antiproliferative effect
Experimental: as §2

[13] = tested on: SW620 cells; assay: MTS cell viability assay, SW620; assay type: cell-based; conditions: Homo sapiens, SW-620, 72 h, read-out: IC50 (50% inhibition), antiproliferative effect
Experimental: as §2

[14] = tested on: DLD-1 cells; assay: MTS cell viability assay, DLD-1; assay type: cell-based; conditions: Homo sapiens, 72 h, read-out: IC50, antiproliferative effect
Experimental: as §2

[15] = tested on: Hsp70 and Hsp27; assay: Western blot of HSF1 downstream proteins; assay type: cell-based, human; conditions: RKO, 50-150 μM, heat shock or 24 h at normal temperature
Experimental: as §1

CNc1ccc([N+](=O)[O-])c(Nc2ccc3[nH]ncc3c2)n1 [KRIBB11]
IC50 [1]: 1.2 µM

COc1cc2c(c(OC)c1OC)-c1c(cc(OC)c(OC)c1OC)C[C@H](C)[C@H](C)C2 [Sch A, Schizandrin A]
Kd [2]: 106 µM
kon ([2]; pH 7.4, read-out: Ka (association constant, SPR)): 26900 M⁻¹ s⁻¹
expression of anti-apoptotic protein Bcl-2 [3]: decreased
expression of pro-apoptotic molecules (Cleaved-PARP and Cleaved-caspase-3) [3]: significantly elevated
inhibition at 100 µM [4]: ~50%
water solubility [5]: low water solubility
expression of cell cycle-related proteins (p-Rb, Cyclin D1, Cdk4, Cdk6) [6]: reducing the expression of cell cycle-related proteins
effect on cell viability ([7]; CCD 841 CoN cells, up to 150 μM): little effect on the cell viability
IC50 ([7]; Homo sapiens, CCD 841 CoN normal colon epithelial cells, MTS, read-out: IC50, antiproliferative effect): > 150 µM
transcription of HSF1 target genes (HSP70, HSP27, HSP90 mRNA) [8]: effectively blocked the transcription of HSF1 target genes
IC50 [9]: 87.6 µM
effect on clone formation [10]: stronger inhibitory effect on cancer cell growth in a dose-dependent manner
Dip G2 ([11]; 50 μM, 24 h (DMSO 15.92 %)): 14.49%
Dip S ([11]; 50 μM, 24 h (DMSO 38.03 %)): 30.80%
Dip G1 ([11]; 50 μM, 24 h (DMSO 46.05 %)): 54.71%
Dip G1 ([11]; 75 μM, 24 h): 62.16%
Dip G2 ([11]; 75 μM, 24 h): 10.56%
Dip S ([11]; 75 μM, 24 h): 27.28%
Dip G1 ([11]; 100 μM, 24 h): 72.26%
Dip G2 ([11]; 100 μM, 24 h): 7.82%
Dip S ([11]; 100 μM, 24 h): 19.93%
Dip G1 ([11]; 150 μM, 24 h): 82.94%
Dip G2 ([11]; 150 μM, 24 h): 8.53%
Dip S ([11]; 150 μM, 24 h): 8.53%
IC50 [12]: 68.7 µM
IC50 [13]: 85.7 µM
IC50 [14]: > 150 µM
HSF1-regulated downstream signaling induced by heat shock and basal expression of Hsp 70 and Hsp 27 [15]: effectively down-regulated
